Experimental data: PubChem BioAssay (NCI)
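Interpolation was linear, between the two tested concentrations surrounding the appropriate level; five concentrations were tested over 48 hours in 96-well plates. At the GI50, growth is halved. TGI: concentration producing complete growth inhibition.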

Key:
Experiment in all cases: NCI-60 cell line screen, 48 h
A498 renal = system: A498 renal
CCRF-CEM leukemia = system: CCRF-CEM leukemia
COLO 205 colon = system: COLO 205 colon
HCT-15 colon = system: HCT-15 colon
HT29 colon = system: HT29 colon
IGROV1 ovarian = system: IGROV1 ovarian
SF-295 CNS = system: SF-295 CNS
SN12C renal = system: SN12C renal
SK-MEL-28 melanoma = system: SK-MEL-28 melanoma
SR leukemia = system: SR leukemia

| Compound | TGI (A498 renal) | TGI (CCRF-CEM leukemia) | TGI (COLO 205 colon) | TGI (HCT-15 colon) | TGI (HT29 colon) | TGI (IGROV1 ovarian) | TGI (SF-295 CNS) | TGI (SN12C renal) | TGI (SK-MEL-28 melanoma) | TGI (SR leukemia) | GI50 (A498 renal) | GI50 (CCRF-CEM leukemia) | GI50 (COLO 205 colon) | GI50 (HCT-15 colon) | GI50 (HT29 colon) | GI50 (IGROV1 ovarian) | GI50 (SF-295 CNS) | GI50 (SK-MEL-28 melanoma) | GI50 (SN12C renal) |
| --- | --- | --- | --- | --- | --- | --- | --- | --- | --- | --- | --- | --- | --- | --- | --- | --- | --- | --- | --- |
| CSc1nc(NC2OC(COC(C)=O)C(OC(C)=O)C(OC(C)=O)C2OC(C)=O)c2c(OC(C)=O)c(C)c(=O)oc2n1 (configuration not stated) | > 100 µM | > 100 µM | > 100 µM | > 100 µM | > 100 µM | > 100 µM | > 100 µM | > 100 µM |  |  |  |  |  |  |  |  |  |  |  |
| Cc1cc(NS(=O)(=O)c2ccc(NC(=O)c3cccc4c(=O)c5ccccc5[nH]c34)cc2)no1 | 79 µM | 94.2 µM | > 100 µM | > 100 µM | > 100 µM | > 100 µM |  | > 100 µM | > 100 µM | 80.8 µM |  |  |  |  |  |  |  |  |  |
| COc1cccc(N=Cc2c3ccccc3c(=O)n3c2oc2ccccc23)c1 | 61.4 µM | 73.2 µM | > 100 µM | > 100 µM | > 100 µM | > 100 µM | 30.1 µM | 23.5 µM | > 100 µM |  | 17.2 µM | 4.58 µM | 34.5 µM | 14.4 µM | 32.7 µM | 5.86 µM | 4.53 µM | > 100 µM | 2.22 µM |
| C#CC[C@]12CC(=O)CC[C@H]1CC(=O)C2 | > 100 µM | > 100 µM | > 100 µM | > 100 µM |  | > 100 µM |  | > 100 µM | > 100 µM | > 100 µM |  |  |  |  |  |  |  |  |  |
| CCCCNC(=O)NS(=O)(=O)c1ccc(N2N=C(c3ccc(C)cc3C)CC2c2ccc(N(C)C)cc2)cc1 (configuration not stated) | 25.9 µM | 46.7 µM | 7.56 µM | > 100 µM | 19.9 µM | > 100 µM |  | 89.5 µM | 7.96 µM |  | 3.9 µM | 3.32 µM | 3.19 µM | 3.09 µM | 4.2 µM | 4.87 µM |  | 2.56 µM | 3.07 µM |
| CC(C)CC(N)C(=O)O (configuration not stated) | > 100 µM | > 100 µM | > 100 µM | > 100 µM | > 100 µM | > 100 µM | > 100 µM | > 100 µM | > 100 µM |  |  |  |  |  |  |  |  |  |  |
| O=[N+]([O-])c1ccc2nnnn2c1 |  |  | > 100 µM | 44.3 µM | > 100 µM | > 100 µM | > 100 µM | > 100 µM | 61.8 µM | 87.1 µM |  |  |  |  |  |  |  |  |  |
| CC(C)(C)C1=CC(=CC=C2C=CN(CCCCCCCCCCCO)C=C2)C=C(C(C)(C)C)C1=O | 7.3 µM | 11.7 µM | 2.82 µM | > 100 µM | > 25.7 µM | 2.26 µM | 2.95 µM | 2.73 µM | 3 µM |  |  |  |  |  |  |  |  |  |  |
| CC(=O)NC(CCCN)C(=O)NCc1ccccc1 (configuration not stated) | > 100 µM | > 100 µM | > 100 µM | > 100 µM | > 100 µM | > 100 µM | > 100 µM | > 100 µM | > 100 µM |  |  |  |  |  |  |  |  |  |  |
| COc1cc2c(/C=C3/C(=O)Nc4cccc(Cl)c43)c(Cl)n(Cc3ccccc3)c2cc1C | 9.03 µM | > 100 µM | 21.8 µM | 31.3 µM | > 100 µM | > 100 µM | 21.2 µM | > 35 µM | 43.7 µM |  | 0.528 µM | 4.83 µM | 2.94 µM | 3.12 µM | 4.99 µM | 7.42 µM | 2.11 µM | 4.98 µM | 6.18 µM |
